Assay results taken from patent publication US20120041025A1, “Dihydrolipoic Acid Derivatives Comprising Nitric Oxide and Therapeutic Uses Thereof” (priority 2009, published 2012).

Key:
[1] = test system: bovine serum albumin (BSA); test: Nitration of bovine serum albumin by NO-DHLA, western blot with anti-nitrotyrosine antibodies (NO donation); assay type: biochemical; conditions: BSA 25 mg/ml incubated with NO-DHLA (6 to 15 μl) for 1 hr; untreated albumin had no detectable nitrotyrosine
Protocol: To determine the ability of the dinitroso-derivative of DHLA (6,8-bis[(oxidoazanylidyne)-λ^4-sulfanyl]octanoic acid or “NO-DHLA”) to donate nitric oxide (NO), bovine serum albumin (BSA) was first prepared in water at 25 mg/ml. In 100 μl of alcohol, increasing concentrations of BSA (15 to 30 μl) were then mixed with increasing concentrations of the NO-DHLA (0 to 15 μl) and incubated for 1 hr. Table 1 represents the incubation:
At the end of the incubation, samples were the separated by SDS-PAGE electrophoresis with along with markers of molecular weight. At the end of the electrophoresis, the blot was subsequently transferred on to a nitrocellulose membrane and western blotting was performed using anti-nitrotyrosine antibodies at a 1:1000 dilution (Oxford Biomedical Research, Rochester Hills, Mich.). Non-specific sites on the nitrocellulose were blocked with milk protein for 16 h at 4° C. and then overlaid with a polyclonal anti-nitrotyrosine rabbit antibody. Peroxidase conjugated anti-rabbit IgG was used as secondary antibody. […]

[2] = Storage stability of DHLA-NO solution (color / absorbance at OD 545 nm); assay type: physicochemical
Protocol: Furthermore, it was also observed that other reduced thiols (cysteine, glutathione), which were used as controls, generated similar S-nitroso thiol compounds. NO generated from the decomposition of other NO donors also generated nitroso-DHLA when incubated with DHLA. […] However, DHLA-NO stored at −80° C. retained its color up for up to 3 months without any loss of absorbance at OD 545 nm.

[3] = test system: low-density lipoprotein (LDL); test: Inhibition of low-density lipoprotein oxidation, spectral analysis at O.D. 234; assay type: biochemical; conditions: 10, 25, and 50 μM NO-DHLA in ethyl alcohol
Protocol: To determine whether the dinitroso-derivative of dihydrolipoic acid (6,8-bis[(oxidoazanylidyne)-λ^4-sulfanyl]octanoic acid or “NO-DHLA”) was capable of inhibiting low-density lipoprotein (LDL) oxidation, LDLs were incubated in ethyl alcohol alone or with NO-DHLA. A spectral analysis of these solutions was then performed at an O.D. of 234, as absorbance at that portion of the spectrum is indicative of the formation of the oxidized fatty acid component of LDL.

For `O=NSCCC(CCCCC(=O)O)SN=O` (centres unmarked) [NO-DHLA, 6,8-bis[(oxidoazanylidyne)-λ^4-sulfanyl]octanoic acid], the “nitrotyrosine formation on BSA (reactivity with anti-nitrotyrosine antibody)” value [1] was “intense reactivity with the antibody”, the “stability of solution stored at room temperature” value ([2]; solution stored at room temperature, color) was “decomposed, losing color within hours” and the “stability without any loss of absorbance at OD 545 nm” value ([2]; stored at −20° C.) was “stable at −20 °C for at least one month”. For the same compound, the “time color retained without any loss of absorbance at OD 545 nm” value ([2]; stored at −80° C.) was “up to 3 months” and the “oxidation of LDL (O.D. at 234 over time)” value [3] was “effectively prevented or significantly reduced the oxidation of LDL”.
